Laboratory results from ChEMBL document CHEMBL1157539, “Thousands of chemical starting points for antimalarial lead identification” (Nature, 2010).

Tested on: Plasmodium falciparum
Assay: GSK_TCMDC: Inhibition of Plasmodium falciparum 3D7 in whole erythrocytes, using parasite LDH activity as an index of growth.
Assay type: functional, organism-based
Details: Plasmodium falciparum, 3D7

Compound	XC50
Nc1c2ccccc2nc2ccc(Cl)cc12	805 nM
CCN(CC)CCN(Cc1ccc(-c2ccc(C(F)(F)F)cc2)cc1)C(=O)Cn1c(CCc2cc(F)ccc2F)nc(=O)c2ccccc21	828 nM
CC(C)N1CCC(N(Cc2ccc(-c3ccc(C(F)(F)F)cc3)cc2)C(=O)Cn2c(CCc3cccc(F)c3F)cc(=O)c3c2CCC3)CC1	617 nM
O=C1COc2cc(Cl)c(CNC3CCN(CCc4ccnc5c(F)cc(F)cc45)CC3)nc2N1	797 nM
COc1ccc(CNCc2cccc(-c3cccc(-c4nc5cccc(C)c5[nH]4)c3)c2)cc1	134 nM
CC(C)(C)c1ccc(NC(=O)c2ccc(CN3CCCN(Cc4cccc(O)c4)CC3)cc2)cc1	665 nM
CN1CCC(Oc2ccc(CN3CC[C@H](NC(=O)c4ccc(F)c(F)c4)C3)c3ccccc23)C1 (stereo partly specified)	1080 nM
O=C(Nc1cccc(-c2csc(-c3nc4ccccc4[nH]3)c2)c1)c1ccoc1	211 nM
Cn1nccc1C(=O)NCCNCc1cccc(-c2ccc(-c3nc4ccccc4[nH]3)s2)c1	303 nM
CC(C)CCN1CCCN(Cc2cccc(NC(=O)c3cc4ccccc4s3)c2)CC1	917 nM
Oc1ccc(CCCNc2nc(NCc3cccc4ccccc34)nc(NC3CCNCC3)n2)cc1	1130 nM
CC1c2cccc(O)c2CCN1CCc1ccc(Cl)c(Cl)c1 (stereo unspecified)	138 nM
CCCCCCCc1c(C)nc2cc(OC)ccc2c1O	62.8 nM
COC(=O)c1ccc(CCC(C)NCC(O)c2cccc(C(F)(F)F)c2)cc1 (stereo unspecified)	411 nM
COc1ccc(CN(C)CCCOc2ccc(NC(=O)C=Cc3ccc(C(C)(C)C)cc3)cc2)cc1OC	855 nM
COc1ccc(CC(C)NCC(O)c2ccc(Cl)c(Cl)c2)cc1 (stereo unspecified)	717 nM
CC(C)CN(C)c1ncnc2c1nc(-c1cncc(C#N)c1)n2CCNCc1ccccc1	1360 nM
Nc1c2c(nc3ccc(NC(=O)Cc4ccccc4)cc13)CCCC2	755 nM
O=C(NCCc1ccccc1)N(Cc1cccc(-c2ccc(CNCCc3ccccc3)cc2)c1)C1CCN(Cc2ccccc2)CC1	613 nM
CCCN(CCCN(CCCN(CCC)C(C)C)c1cc(C)nc(Nc2ccc(Cl)cc2)n1)C(C)C	113 nM
Cc1csc2nc(-c3ccccn3)nc(Nc3ccc4ncsc4c3)c12	1110 nM
Cc1c(C(=O)N[C@@H](C)c2ccccc2)c2cc(O)c(Br)cc2n1C1CCCCC1	840 nM
COc1ccc(-c2cccc(NC(=O)c3ccc(Cl)cc3)c2)cc1CNC(C)C	695 nM
COc1ccc2ncc(F)c(CCN3CC(O)C(CNCc4ccc5oc(=O)ccc5c4)C3)c2n1 (stereo unspecified)	949 nM

Compound	XC50
CC(C)c1ccc(NC(=O)NC2CCN(CCCCCNC(=O)/C=C/c3ccc(Cl)c(Cl)c3)CC2)cc1	674 nM
O=C(Cc1cc(=O)oc2cc(O)ccc12)N1CCC(CN2CCC(c3c[nH]c4ccccc34)CC2)CC1	870 nM
CN(Cc1cccc(C#N)c1)C1CCN(c2cc(NC(=O)c3cccc(F)c3)ccn2)CC1	926 nM
COc1ccc(C(=O)NCc2ccc(N)nc2C)cc1Nc1ncc(-c2cccc(N(C)C)c2)cn1	897 nM
O=C(Cc1c[nH]cn1)Nc1cccc(-c2cccc(-c3nc4ccccc4[nH]3)c2)c1	1020 nM
Cc1csc(-c2ncc(OC[C@@H](N)Cc3ccccc3)cc2-c2ccc3[nH]nc(C)c3c2)c1	836 nM
COC(=O)c1ccc(NC(=O)Nc2ccc(Cn3ncc(N4CCCNCC4)c(Cl)c3=O)cc2)cc1	605 nM
COc1ccc(N2CCN(CCCOc3ccc(NC(=O)c4cc(Cl)cc(Cl)c4)cc3)CC2)c(OC)c1	897 nM
CC(Cc1ccc(NC(=O)[C@@H](C)NCCc2cccc(Cl)c2)cc1)NCCc1cccc(Cl)c1 (stereo partly specified)	778 nM
O=S(=O)(c1ccccc1OC(F)(F)F)C1CC2CCC(C1)N2S(=O)(=O)c1cccc(C(F)(F)F)c1 (stereo unspecified)	665 nM
CC(C)NCc1ccc(-c2ccc(-c3nc4cc(C(F)(F)F)ccc4[nH]3)s2)cc1	181 nM
CCNc1cc(C(=O)N[C@@H](Cc2ccccc2)[C@H](O)CNC2CCC(C)(C)C2)cc(N2CCCCS2(=O)=O)c1 (stereo partly specified)	138 nM
O=C(Nc1ccc(C(F)(F)F)cc1)c1cccc(S(=O)(=O)NC2CCN(Cc3ccccc3)C2)c1 (stereo unspecified)	1050 nM
c1ccc(COc2ccc(Nc3ncnc4cnc(-c5ccc(CN6CCCCC6)o5)cc34)cc2)cc1	967 nM
CCCCCCCC1CC(CC(=O)Nc2ccnc3ccc(OC)cc23)CN1C(=O)OC(C)(C)C (stereo unspecified)	714 nM
CCCc1nc2c(N3CCCN(C(=O)NC4CCCCC4)CC3)cccc2n1Cc1ccccn1	1160 nM
CCc1cc(=O)[nH]c(-n2nc(C)cc2NC(=O)CC(c2ccccc2)c2ccccc2)n1	964 nM
Cc1nc(NC2=NCN(CCCN3CCOCC3)CN2)nc2c(C)cccc12	1130 nM
COc1cc(C)ccc1N1CCN(CCCCNC(=O)c2ccc(NC(=O)c3ccc(Cl)cc3)cc2)CC1	700 nM
FC(F)(F)c1ccc2[nH]c(-c3ccc(-c4ccc(CNCCc5ccncc5)cc4)cc3)nc2c1	129 nM
Cn1cc(-c2ccnc3[nH]c(-c4cccc(CNC5CCC(O)CC5)c4)cc23)cn1 (stereo unspecified)	903 nM
Cc1ccc(CN2CCN(Cc3cccc(NC(=O)c4ccc5ccccc5c4)c3)CC2)cc1C	1220 nM
CCOc1cc(C(=O)N[C@@H](Cc2ccccc2)[C@H](O)CNC(C)(C)c2cccc(OC)c2)cc(N2CCCS2(=O)=O)c1	224 nM
Nc1nc(N)c2cc(CNc3ccc(Cl)c(Cl)c3)ccc2n1	1020 nM

Compound	XC50
O=C(/C=C/c1ccc(Cl)c(Cl)c1)NCCCCCN1CCN(C(=O)Nc2cccc(F)c2)CC1	874 nM
CCSc1ccc(C)cc1CON1C(N)=NC(N)=NC1(C)C	3.2 nM
CCN1CCN(c2ccc(Nc3ccnc4ccc(Br)cc34)cc2)CC1	300 nM
CC(C)CC(NC(=O)c1cc2ccccc2s1)C(=O)N1CCCCCC1c1ccc(C(C)(C)C)cc1 (stereo unspecified)	857 nM
N[C@@H](CCNC1CCN(c2cccc(C(F)(F)F)c2)CC1)Cc1ccc(F)c(F)c1	1290 nM
COc1ccc(CNC2CCN(C)CC2)cc1-c1cccc(S(=O)(=O)NCc2ccccc2)c1	723 nM
N=C(NCCCCCCNC(=N)NC(=N)c1ccc(Cl)cc1)NC(=N)c1ccc(Cl)cc1	212 nM
O=C(Nc1cc(C(F)(F)F)ccc1-n1cncn1)C1(c2ccccc2)CC1	60.1 nM
COc1ccc(CC(C)NCC(O)c2cccc(Cl)c2F)cc1 (stereo unspecified)	1080 nM
COc1ccc2ncc(F)c([C@@H](O)CN3CCC(NCc4ccc5c(c4)NCCS5)CC3)c2n1	504 nM
O=C(Nc1ccc2ccccc2c1)c1ccc(CN2CCC(Cc3ccccc3)CC2)cc1	876 nM
O=C1c2ccccc2C(=O)N1CCOc1c(Br)cc(Br)cc1CNCCCNc1cc(=O)c2ccccc2[nH]1	837 nM
NC1CCN(Cc2cccc(-c3ccc(-c4nc5cc(C(F)(F)F)ccc5[nH]4)cc3)c2)C1 (stereo unspecified)	698 nM
Cc1ccc2[nH]ncc2c1N(CC1CCCCC1)c1ccnc(Nc2ccc(OCC(O)CN3CC=CCC3)cc2)n1 (stereo unspecified)	622 nM
CC(C)(C)c1ccc(NC(=O)c2ccc(CN3CCCN(Cc4ccc(F)cc4)CC3)cc2)cc1	1110 nM
COc1ccc(S(=O)(=O)N2CCC3(CC2)OCC(=O)NC3c2ccc(Cl)c(Cl)c2)cc1 (stereo unspecified)	644 nM
CNC(=O)c1ccccc1Nc1nc(Nc2cccc(CS(C)(=O)=O)c2)ncc1C	533 nM
O=C(/C=C/c1ccc(Cl)c(Cl)c1)NCCCCCCN1CCN(C(=O)Nc2cc(Cl)nc(Cl)c2)CC1	784 nM
COc1ccc(NC2=C(c3ccccc3)C(=O)c3ccccc32)cn1	705 nM
C=Cc1ccc(-c2c(C)[nH]c(C)c(Br)c2=O)cc1	556 nM
COc1ccc(C=CC(=O)Nc2ccc(N3CCCC3)cc2)cc1	1280 nM
CCCNCc1ccc(-c2ccc(CN(CCOC)C(=O)/C=C/c3ccccc3C)cc2)nc1	903 nM
N=C1N=C(N)NC2(CCCCC2)N1OCCCOc1cccc2ccccc12	3.2 nM
CCOC(=O)C1=C(C)N=c2sc(=Cc3cc(Cl)ccc3O)c(=O)n2C1c1cc(OC)c(OC)cc1Br (stereo unspecified)	993 nM

Compound	XC50
Cc1ccc(-n2nc3ccc(NC(=O)c4ccc([N+](=O)[O-])o4)cc3n2)cc1C	397 nM
CCc1ccc(-c2nc3cc(NC(=O)c4cc([N+](=O)[O-])cc([N+](=O)[O-])c4)ccc3o2)cc1	932 nM
COCCNCc1cccc(-c2ccc(CNC3CCN(Cc4ccccc4)CC3)cc2)c1	508 nM
CN1CCN(CCCNCc2ccc(Nc3nccc(Nc4ccc(Oc5ccccc5)cc4)n3)cc2)CC1	635 nM
CC(=O)Oc1c(Br)c(C)nc(C)c1-c1ccc(Oc2ccc(OC(F)(F)F)cc2)cc1	131 nM
O=C(CCCc1ccccc1)Nc1cccc(N2CCC(N3CCN(c4ccccc4O)CC3)CC2)c1	786 nM
CN(C)CCOc1ccc2c(c1)OC(C)(C)C=C2c1cccc2ccccc12	785 nM
CC(CN1CCN(C)CC1)C(=O)Nc1ccc(-c2ccc(-c3nc4cc(C(F)(F)F)ccc4[nH]3)cc2)cc1 (stereo unspecified)	415 nM
CCOc1cc(C)ccc1C1CCN(CCCCNC(=O)c2ccc(NC(=O)c3cc(Cl)cc(Cl)c3)cc2)CC1	355 nM
Cc1ccc(C(C)C)cc1CON1C(=N)N=C(N)NC1(C)C	3.2 nM
Oc1ccc(CCNc2nc(NCCCOc3ccccc3-c3ccc(C(F)(F)F)cc3)nc(N3CCNCC3)n2)cc1	891 nM
COc1ccc2nccc([C@@H](O)CN3CCC(NS(=O)(=O)c4cc(Br)c(Br)s4)CC3)c2c1	851 nM
COc1cc(F)c2nccc([C@@H](O)CN3CCC(NCc4ccc5c(n4)NC(=O)CS5)CC3)c2c1	560 nM
CC1CN(c2cnn(Cc3cccc(NC(=O)Nc4ccc(F)cc4[N+](=O)[O-])c3)c(=O)c2Cl)CC(C)N1 (stereo unspecified)	866 nM
Cc1c(C(=O)C2CC2CN2CCC(N3CCCCC3)CC2)sc2ccccc12 (stereo unspecified)	1020 nM
Cc1cc(NC(=O)c2ccc(-c3ccccc3)cc2)no1	1020 nM
O=S(=O)(c1ccc(Cl)cc1Cl)N1CCCCC(c2ccc(C(F)(F)F)cc2)=N1	160 nM
CCOc1ccc(-c2nonc2NC(=O)c2ccccc2F)cc1OCC	841 nM
CC(=O)c1cccc(NC(=O)NC2CCN(c3ccnc(Nc4ccc(F)cc4)n3)C2)c1 (stereo unspecified)	650 nM
CNC(=O)Cc1ccc(C(=O)Nc2cccc(-c3csc(-c4nc5ccccc5[nH]4)c3)c2)cc1	273 nM
O=C(Nc1cccc(CN2CCN(C(=O)c3cccc(F)c3)CC2)c1)c1cccs1	372 nM
COc1cc(-c2nc3c4ccccc4c4ccccc4c3[nH]2)cc(OC)c1OC	848 nM
CC(=O)Nc1ccc(C(=O)Nc2ccc(-c3cccc(-c4nc5cc(F)ccc5[nH]4)c3)cc2)cn1	231 nM
Cc1nc2ccc3ccc(CNc4ccc5c(c4)CN([C@H](CCC(=O)O)C(=O)O)C5=O)cc3c2c(=O)[nH]1	860 nM
